US20240115577A1, “SMALL MOLECULE REGULATORS OF ALVEOLAR TYPE 2 CELL PROLIFERATION FOR THE TREATMENT OF PULMONARY DISEASES” (THE SCRIPPS RESEARCH INSTITUTE, priority 2021, published 2024)
“Also recorded” adds a separate entry of the source. Like-named read-outs stand apart in the source and are kept apart here. Blank lines part the entries; values can stand above or below the compound they belong to.

Tests used:
[1] = biological target: Human DPP4 (Homo sapiens (Human), UniProt P27487); experiment: DPP4 activity assay (Sigma-Aldrich MAK088 kit); type: biochemical; settings: Table 4; read-out: DPPIV IC50
Chain of Human DPP4 (P27487 whole entry): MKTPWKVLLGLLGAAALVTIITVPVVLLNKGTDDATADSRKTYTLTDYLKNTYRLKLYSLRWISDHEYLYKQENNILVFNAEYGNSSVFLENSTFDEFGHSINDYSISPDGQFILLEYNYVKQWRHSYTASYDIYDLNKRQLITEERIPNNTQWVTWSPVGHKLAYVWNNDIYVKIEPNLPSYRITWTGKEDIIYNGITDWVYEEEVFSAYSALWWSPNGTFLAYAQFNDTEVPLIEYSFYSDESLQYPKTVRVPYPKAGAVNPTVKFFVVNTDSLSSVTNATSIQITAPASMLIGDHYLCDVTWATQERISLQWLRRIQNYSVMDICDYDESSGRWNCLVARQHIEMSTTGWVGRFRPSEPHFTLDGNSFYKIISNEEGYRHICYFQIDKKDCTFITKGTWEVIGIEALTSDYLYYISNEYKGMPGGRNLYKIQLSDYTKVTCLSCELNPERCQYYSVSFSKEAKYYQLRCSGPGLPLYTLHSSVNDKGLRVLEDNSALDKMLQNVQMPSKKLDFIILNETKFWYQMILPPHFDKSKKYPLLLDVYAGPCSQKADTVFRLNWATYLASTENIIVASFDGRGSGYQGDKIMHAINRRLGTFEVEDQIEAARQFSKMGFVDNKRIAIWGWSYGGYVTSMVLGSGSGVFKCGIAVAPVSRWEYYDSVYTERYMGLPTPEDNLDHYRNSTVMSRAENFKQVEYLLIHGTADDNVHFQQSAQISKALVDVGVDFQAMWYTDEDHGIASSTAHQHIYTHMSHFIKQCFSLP
Method: DPP4 activity assay. Human DPP4 activity assay data were obtained using a DPP4 Activity Assay Kit (Sigma-Aldrich, MAK088) according to the manufacturer's instructions. Briefly, 10 μL of DPP4 Assay Buffer was transferred per well in low volume 384-well plates before transferring 10 μL of diluted compound dissolved in DPP4 assay buffer. 5 μL of Master Reaction Mix containing a fluorescent substrate that becomes fluorescent upon cleavage by the enzyme. Fluorescence intensity measurements were recorded at 1-minute time intervals over the course of 20 minutes using an Envision Multimode Plate Reader (PerkinElmer).

[2] = test system: Primary human AEC2s; experiment: AEC2 proliferation assay (Ki67 high content imaging); type: cell-based
Method: To identify small molecules capable of proliferating AEC2s, as disclosed herein, we first established a culture system with primary human small airway epithelial cells (SAECs) from a commercial source.
AEC2 proliferation assay. Primary human AEC2s were plated at a density of 1,500 cells per well in black 384-well plates (Greiner) coated with 10 ug/mL. Laminin (Life Technologies) in 50 μL of Small Airway Epithelial Cell Growth Medium (Lonza) without EGF, retinoic acid and with 5% BPE. 100 nL of compound dissolved in DMSO was then delivered using a Biomek FX instrument (Beckman Coulter) fitted with a pintool head (V&P Scientific).

[3] = test system: bleomycin-induced lung fibrosis; experiment: Bleomycin-induced lung fibrosis model; type: in vivo, mouse; settings: 0.5 mg/kg IT once every four days, versus vehicle
Method: Experimental Methods of Bleomycin Model Bleomycin (Hospira) was used to induce lung fibrosis in mice. Body weight matched (24 gram˜28 gram) male C57BL/6J mice at 10-12 weeks of age were selected to use in bleomycin model. For orally delivered DPP4 inhibitors. compounds were dissolved in PBS resulting in clear solution. […] For intratracheally delivered DPP4 inhibitors, compounds were dissolved in PBS resulting in clear solution. […] 0.5 U/kg Bleomycin or PBS in sham group was intratracheally injection into mice lung at day 0. […] All animals were sacrificed at day 20 after bleomycin injection. Bronchoalveolar lavage fluid (BALF) was retrieved using standard method. 1 ml 4% formalin was used to inflate the lung, which was subsequently fixed in 4% formalin for 24 hours and preserved in 70% EtOH until histological process. For readouts, body weight was measured every day; total protein content in BALF was quantified using BCA assay; pulmonary fibrosis was assessed using Masson's trichrome staining.

[4] = IT pharmacokinetics of dutogliptin (1) and dutogliptin boronate (15); type: in vivo, mouse; settings: for Plasma concentration of dutogliptin, individual animals / Bronchoalveolar lavage fluids concentration of dutogliptin, individual animals / Lung concentration of dutogliptin, individual animals: mice, 1.8 mg/kg IT dutogliptin boronate (cpd 15)
Method: Like other […]. Dutogliptin (1) dosed IT in mice with PBS solution quickly cleared in lung (<24h. Table 8A). […] The parent drug dutogliptin was detected in plasma and lung. […] The drug was retained in the lung for over 48 h. The data clearly illustrated the unexpected lung retention ability of boronate prodrug 15.

[5] = test system: alveolar epithelium; settings: Stone et al., Diab et al.; cited from earlier work
[6] = test system: human pulmonary fibroblasts; experiment: Pulmonary fibroblast counter-assay; type: cell-based; settings: at concentrations that promoted AEC2 proliferation
[7] = Homo sapiens, Table 4, promotion of AEC2 proliferation, read-out: AEC2 EC50
[8] = Homo sapiens, Table 5, read-out: AEC2 proliferation

Compound: CCOC(=O)C12CCC(NCC(=O)N3C[C@@H](F)C[C@H]3C#N)(CC1)CC2 [Cpd 2, ethyl 4-((2-((2S,4S)-2-cyano-4-fluoropyrrolidin-1-yl)-2-oxoethyl)amino)bicyclo[2.2.2]octane-1-carboxylate]
IC50 [1]: 2.2 nM

Compound: N#C[C@@H]1CCCN1C(=O)CNC12CC3C[C@@H](C1)C[C@@](O)(C3)C2 [Cpd 3, (2S)-1-(((1S,3R,5S)-3-hydroxyadamantan-1-yl)glycyl)pyrrolidine-2-carbonitrile]
EC50 [2, 7]: 160 nM | EC50 [2, 8]: 160 nM

Compound: CC1(C)[C@@H]2C[C@H]3OB([C@@H]4CCCN4C(=O)CN[C@@H]4CCNC4)O[C@@]3(C)[C@H]1C2 [Cpd 15, 2-(((R)-pyrrolidin-3-yl)amino)-1-((R)-2-((3aS,4S,6S,7aR)-3a,5,5-trimethylhexahydro-4,6-methanobenzo[d][1,3,2]dioxaborol-2-yl)pyrrolidin-1-yl)ethan-1-one]
BALF protein level [3]: reduced | plasma and lung levels of the boronate itself ([4]; IT dosing, data not shown): very low and absent after 0.25 h | Plasma concentration of dutogliptin, individual animals ([4]; 7.00 h): BQL | Plasma concentration of dutogliptin, individual animals ([4]; 24.0 h): BQL | Bronchoalveolar lavage fluids concentration of dutogliptin, individual animals ([4]; 48.0 h): BQL | Lung concentration of dutogliptin, individual animals ([4]; 48.0 h): BQL | Plasma concentration of dutogliptin, individual animals ([4]; 48.0 h): BQL | Bronchoalveolar lavage fluids concentration of dutogliptin, individual animals ([4]; 96.0 h): BQL | Lung concentration of dutogliptin, individual animals ([4]; 96.0 h): BQL | Plasma concentration of dutogliptin, individual animals ([4]; 96.0 h): BQL | Bronchoalveolar lavage fluids concentration of dutogliptin, individual animals ([4]; 168 h): BQL | Lung concentration of dutogliptin, individual animals ([4]; 168 h): BQL | Plasma concentration of dutogliptin, individual animals ([4]; 168 h): BQL | conversion of the boronate to the active drug ([4]; mouse IT pharmacokinetic study): convert to the active drug dutogliptin in both plasma and lung | lung exposure of dutogliptin after IT boronate versus IT dutogliptin itself ([4]; mouse, in vivo): significantly higher; also recorded: much higher

Compound: N#C[C@@H]1C[C@H](F)CN1C(=O)CNC12CCC(C(=O)O)(CC1)CC2 [Cpd 16, 4-((2-((2S,4S)-2-cyano-4-fluoropyrrolidin-1-yl)-2-oxoethyl)amino)bicyclo[2.2.2]octane-1-carboxylic acid]
IC50 [1]: 1.2 nM

Compound: COC(=O)C12CCC(NCC(=O)N3C[C@@H](F)C[C@H]3C#N)(CC1)CC2 [Cpd 17, methyl 4-((2-((2S,4S)-2-cyano-4-fluoropyrrolidin-1-yl)-2-oxoethyl)amino)bicyclo[2.2.2]octane-1-carboxylate]
IC50 [1]: 1 nM

Compound: N#C[C@@H]1CCCN1C(=O)CNC12CC3C[C@H](CC(N)(C3)C1)C2 [Cpd 18, (2S)-1-(((1S,3R,5R)-3-aminoadamantan-1-yl)glycyl)pyrrolidine-2-carbonitrile]
IC50 [1]: 38 nM

Compound: CCCCCCCCc1ccc(CCC(N)(CO)CO)cc1 [FTY-720]
apoptosis and inflammatory cytokine release in alveolar epithelium [5]: inhibited apoptosis and inflammatory cytokine release | AEC2 proliferation, result in words [2]: active

Compound: N#Cc1ccc(NCCNCC(=O)N2CCC[C@H]2C#N)nc1 [NVP-728]
total number, percent Ki67 positivity, or myofibroblast differentiation status of pulmonary fibroblasts [6]: did not increase | EC50 ([2]; FIG. 1B, 1C, read-out: EC50, AEC2 proliferation (ReFRAME screen hits)): ~500 nM

Compound: CC(C)Oc1ccc(-c2nc(-c3cccc4c3CC[C@@H]4NCCO)no2)cc1C#N [Ozanimod]
AEC2 proliferation, result in words [2]: active

Compound: FC(F)(F)c1cccc(-c2noc(-c3cc(-c4ccccc4)c(C(F)(F)F)s3)n2)c1 [SEW-2871]
apoptosis and inflammatory cytokine release in alveolar epithelium [5]: inhibited apoptosis and inflammatory cytokine release | AEC2 proliferation, result in words [2]: active

Continued, in another order:

EC50 [2, 7]: 110 nM | EC50 [2, 8]: 110 nM
Compound: Cn1c(=O)cc(N2CCC[C@@H](N)C2)n(Cc2ccccc2C#N)c1=O [Cpd 7, (R)-2-((6-(3-aminopiperidin-1-yl)-3-methyl-2,4-dioxo-3,4-dihydropyrimidin-1(2H)-yl)methyl)benzonitrile]

EC50 [2, 7]: 43 nM | EC50 [2, 8]: 43 nM
Compound: CS(=O)(=O)n1cc2c(n1)CN([C@H]1CO[C@H](c3cc(F)ccc3F)[C@@H](N)C1)C2 [Cpd 9, (2R,3S,5R)-2-(2,5-difluorophenyl)-5-(2-(methylsulfonyl)-2,6-dihydropyrrolo[3,4-c]pyrazol-5(4H)-yl)tetrahydro-2H-pyran-3-amine]

EC50 [2, 7]: 67 nM | EC50 [2, 8]: 67 nM
Compound: Cn1c(=O)cc(N2CCC[C@@H](N)C2)n(Cc2cc(F)ccc2C#N)c1=O [Cpd 10, (R)-2-((6-(3-aminopiperidin-1-yl)-3-methyl-2,4-dioxo-3,4-dihydropyrimidin-1(2H)-yl)methyl)-4-fluorobenzonitrile]

EC50 [2, 7]: 220 nM | EC50 [2, 8]: 220 nM
Compound: N[C@@H](CC(=O)N1CCc2c(nc(C(F)(F)F)nc2C(F)(F)F)C1)CN1CC(F)(F)CCC1=O [Cpd 11, (S)-1-(2-amino-4-(2,4-bis(trifluoromethyl)-5,8-dihydropyrido[3,4-d]pyrimidin-7(6H)-yl)-4-oxobutyl)-5,5-difluoropiperidin-2-one]

EC50 [2, 7]: 110 nM | EC50 [2, 8]: 110 nM
Compound: Cc1cc2ncc(C(=O)NCC(C)(C)NCC(=O)N3CCC[C@H]3C#N)cn2n1 [Cpd 12, (S)-N-(2-((2-(2-cyanopyrrolidin-1-yl)-2-oxoethyl)amino)-2-methylpropyl)-2-methylpyrazolo[1,5-a]pyrimidine-6-carboxamide]

IC50 [1]: 6 nM
Compound: CC#CCn1c(N2CCC[C@@H](N)C2)cc(=O)n(Cc2cccc(C(=O)OC)c2)c1=O [Cpd 25, methyl (R)-3-((4-(3-aminopiperidin-1-yl)-3-(but-2-yn-1-yl)-2,6-dioxo-3,6-dihydropyrimidin-1(2H)-yl)methyl)benzoate]

IC50 [1]: 0.8 nM
Compound: N[C@@H](CC(=O)N1CCn2c(C(F)(F)F)nc(C(=O)O)c2C1)Cc1cc(F)c(F)cc1F [Cpd 26, (R)-7-(3-amino-4-(2,4,5-trifluorophenyl)butanoyl)-3-(trifluoromethyl)-5,6,7,8-tetrahydroimidazo[1,5-a]pyrazine-1-carboxylic acid]

EC50 ([2]; Homo sapiens, FIG. 1B, 1C, read-out: EC50, AEC2 proliferation (ReFRAME screen hits)): ~100 nM
Compound: CCc1cc(/C(C)=N/OCc2ccc(C3CCCCC3)c(C(F)(F)F)c2)ccc1CN1CC(C(=O)O)C1 [siponimod]
total number, percent Ki67 positivity, or myofibroblast differentiation status of pulmonary fibroblasts [6]: did not increase
